Reference: US11802120B2, “Fused cyclic urea derivatives as CRHR2 antagonist” (RaQualia Pharma Inc., priority 2018, dated 2023)

Molecular target: T1, human CRHR2-alpha (Homo sapiens, UniProt Q13324)
T1 sequence (Q13324 1-411): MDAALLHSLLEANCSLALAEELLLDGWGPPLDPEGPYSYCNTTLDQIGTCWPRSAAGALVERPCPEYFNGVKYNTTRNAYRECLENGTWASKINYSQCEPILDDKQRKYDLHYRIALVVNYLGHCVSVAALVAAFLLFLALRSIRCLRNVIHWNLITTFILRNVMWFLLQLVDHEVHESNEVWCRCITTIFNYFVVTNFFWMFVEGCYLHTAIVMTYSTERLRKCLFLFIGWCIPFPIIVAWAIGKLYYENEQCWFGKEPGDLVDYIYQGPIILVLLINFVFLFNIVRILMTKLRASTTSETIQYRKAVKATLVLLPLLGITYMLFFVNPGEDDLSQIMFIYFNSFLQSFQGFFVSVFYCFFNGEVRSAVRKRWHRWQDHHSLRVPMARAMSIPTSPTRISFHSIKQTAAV
Test: cAMP functional assay for human CRHR2 (LANCE Ultra cAMP, TR-FRET)
Format: cell-based
Conditions: CHO-K1 cells expressing human CRHR2-alpha, agonist human urocortin2 at EC80, cAMP; read-out: IC50 against CRHR2
Summary of the method: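 IC50 values derive from percent inhibition of EC80 agonist-stimulated cAMP in CHO-K1 transfectants, with 0.5 mM IBMX present; the CRHR2 line was stimulated by human urocortin2 and the CRHR1 line by CRF.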

IC50, < 300 nM:
Cc1ncc(Cl)cc1C(=O)N[C@H]1CC[C@H](Cn2c(=O)n(-c3ccc(-c4ncco4)cc3)c3ccccc32)CC1 [Example 451, 5-chloro-2-methyl-N-((1r,4r)-4-((3-(4-(oxazol-2-yl)phenyl)-2-oxo-2,3-dihydro-1H-benzo [d]imidazol-1-yl)methyl)cyclo-hexyl)nicotinamide]
Cc1ncc(Cl)cc1C(=O)N[C@H]1CC[C@H](Cn2c(=O)n(-c3ccc(N[C@@H]4CCOC4)nc3)c3ccccc32)CC1 [Example 107, 5-chloro-2-methyl-N-((1R,4R)-4-((2-oxo-3-(6-(((R)-tetrahydro-furan-3-yl)amino)pyridin-3-yl)-2,3-dihydro-1H-benzo[d]imidazol-1-yl)methyl)cyclohexyl) nicotinamide]
CN1CCN(c2cc(-n3c(=O)n(C[C@H]4CC[C@H](NC(=O)c5cc(Cl)cnc5C(F)F)CC4)c4ccccc43)ccn2)C1=O [Example 707, 5-chloro-2-(difluoromethyl)-N-((1r,4r)-4-((3-(2-(3-methyl-2-oxoimidazolidin-1-yl)pyridin-4-yl)-2-oxo-2,3-dihydro-1H-benzo[d]imidazol-1-yl)methyl)cyclohexyl) nicotinamide]
Cc1ncc(Cl)cc1C(=O)N[C@H]1CC[C@H](Cn2c(=O)n(-c3ccc(OC4CC4)nc3)c3ccccc32)CC1 [Example 113, 5-chloro-N-(4-((3-(6-cyclopropoxypyridin-3-yl)-2-oxo-2,3-dihydro-1H-benzo [d]imidazol-1-yl)methyl)cyclohexyl)-2-methylnico-tinamide]
Cc1ncc(Cl)cc1C(=O)N[C@H]1CC[C@H](Cn2c(=O)n(-c3cc(Br)ccc3C#N)c3ccccc32)CC1 [Example 307, N-((1r,4r)-4-((3-(5-bromo-2-cyanophenyl)-2-oxo-2,3-dihydro-1H-benzo[d]imidazol-1-yl)methyl)cyclohexyl)-5-chloro-2-methylnicotinamide]
CNc1ccc(-n2c(=O)n(C[C@H]3CC[C@H](NC(=O)c4cc(Cl)cnc4C(F)F)CC3)c3ccccc32)nc1 [Example 660, 5-chloro-2-(difluoromethyl)-N-((1r,4r)-4-((3-(5-(methylamino)pyridin-2-yl)-2-oxo-2,3-dihydro-1H-benzo[d]imidazol-1-yl)methyl)cyclohexyl)nicotinamide]
CNC(=O)c1noc2cc(-n3c(=O)n(C[C@H]4CC[C@H](NC(=O)c5cc(Cl)cnc5C)CC4)c4ccccc43)ccc12 [Example 244, 6-(3-(((1r,4r)-4-(5-chloro-2-methylnicotinamido)cyclohexyl)methyl)-2-oxo-2,3-dihydro-1H-benzo[d]imidazol-1-yl)-N-methylbenzo[d]isoxazole-3-carboxamide]
CCn1c(=O)oc2cc(-n3c(=O)n(C[C@H]4CC[C@H](NC(=O)c5cc(Cl)cnc5C)CC4)c4ccccc43)cnc21 [Example 277, 5-chloro-N-((1r,4r)-4-((3-(3-ethyl-2-oxo-2,3-dihydro-oxazolo[4,5-b]pyridin-6-yl)-2-oxo-2,3-dihydro-1H-benzo [d]imidazol-1-yl)methyl)cyclohexyl)-2-methylnico-tinamide]
Cc1ccc(-n2c(=O)n(C[C@H]3CC[C@H](NC(=O)c4cc(Cl)cnc4C(F)F)CC3)c3nccnc32)cc1 [Example 506, 5-chloro-2-(difluoromethyl)-N-((1r,4r)-4-((2-oxo-3-(p-tolyl)-2,3-dihydro-1H-imidazo[4,5-b]pyrazin-1-yl)methyl)cyclohexyl)nicotinamide]
Cn1ccc(-c2ccc(-n3c(=O)n(C[C@H]4CC[C@H](NC(=O)c5cc(Cl)cnc5C(F)(F)F)CC4)c4ccccc43)cn2)n1 [Example 777, 5-chloro-N-((1r,4r)-4-((3-(6-(1-methyl-1H-pyrazol-3-yl)pyridin-3-yl)-2-oxo-2,3-dihydro-1H-benzo[d]imidazol-1-yl)methyl)cyclohexyl)-2-(trifluoromethyl)nicotinamide]
Cc1ncc(Cl)cc1C(=O)N[C@H]1CC[C@H](Cn2c(=O)n(-c3cccc(-c4cnn(C)c4)c3)c3ccccc32)CC1 [Example 678, 5-chloro-2-methyl-N-((1r,4r)-4-((3-(3-(1-methyl-1H-pyrazol-4-yl)phenyl)-2-oxo-2,3-dihydro-1H-benzo[d]imidazol-1-yl)methyl)cyclohexyl)nicotinamide]
Cc1ncc(Cl)cc1C(=O)N[C@H]1CC[C@H](Cn2c(=O)n(-c3ccc4ncccc4c3)c3cccnc32)CC1 [Example 358, 5-chloro-2-methyl-N-((1r,4r)-4-((2-oxo-1-(quinolin-6-yl)-1H-imidazo[4,5-b]pyridin-3(2H)-yl)methyl)cyclohexyl) nicotinamide]
CC(=O)c1ccc(-n2c(=O)n(C[C@H]3CC[C@H](NC(=O)c4cc(Cl)cnc4C(F)F)CC3)c3cccnc32)cc1 [Example 400, N-((1r,4r)-4-((3-(4-acetylphenyl)-2-oxo-2,3-dihydro-1H-imidazo [4,5-b]pyridin-1-yl)methyl)cyclo-hexyl)-5-chloro-2-(difluoro-methyl)nicotinamide]
Cc1ncc(Cl)cc1C(=O)N[C@H]1CC[C@H](Cn2c(=O)n(-c3ccc(-n4ccnn4)nc3)c3ccccc32)CC1 [Example 511, N-((1r,4r)-4-((3-(6-(1H-1,2,3-triazol-1-yl)pyridin-3-yl)-2-oxo-2,3-dihydro-1H-benzo[d]imidazol-1-yl)methyl)cyclohexyl)-5-chloro-2-methylnicotinamide]
CCC(=O)Nc1ccc(-n2c(=O)n(C[C@H]3CC[C@H](NC(=O)c4cc(Cl)cnc4C(F)(F)F)CC3)c3ccccc32)cn1 [Example 643, 5-chloro-N-((1r,4r)-4-((2-oxo-3-(6-propionamido-pyridin-3-yl)-2,3-dihydro-1H-benzo[d]imidazol-1-yl)methyl)cyclohexyl)-2-(tri-fluoromethyl)nicotinamide]
Cc1ncc(Cl)cc1C(=O)N[C@H]1CC[C@H](Cn2c(=O)n(-c3ccc4c(C)noc4c3)c3ccccc32)CC1 [Example 171, 5-chloro-2-methyl-N-((1r,4r)-4-((3-(3-methylbenzo[d]isoxazol-6-yl)-2-oxo-2,3-dihydro-1H-benzo[d]imidazol-1-yl)methyl)cyclo-hexyl)nicotinamide]
CNc1ccc(-n2c(=O)n(C[C@H]3CC[C@H](NC(=O)c4cc(Cl)cnc4C(F)(F)F)CC3)c3cc(F)ccc32)cn1 [Example 704, 5-chloro-N-((1r,4r)-4-((6-fluoro-3-(6-(methylamino)pyridin-3-yl)-2-oxo-2,3-dihydro-1H-benzo[d]imidazol-1-yl)methyl)cyclo-hexyl)-2-(trifluoromethyl) nicotinamide]
Cc1cn(CCO)c2ncc(-n3c(=O)n(C[C@H]4CC[C@H](NC(=O)c5cc(Cl)cnc5C(F)F)CC4)c4ccccc43)cc12 [Example 731, 5-chloro-2-(difluoromethyl)-N-((1r,4r)-4-((3-(1-(2-hydroxyethyl)-3-methyl-1H-pyrrolo[2,3-b]pyridin-5-yl)-2-oxo-2,3-dihydro-1H-benzo[d]imidazol-1-yl)methyl)cyclohexyl)nicotinamide]
Cn1ccnc1-c1ccc(-n2c(=O)n(C[C@H]3CC[C@H](NC(=O)c4cc(Cl)cnc4C(F)F)CC3)c3ccccc32)cc1 [Example 567, 5-chloro-2-(difluoromethyl)-N-((1r,4r)-4-((3-(4-(1-methyl-1H-imidazol-2-yl)phenyl)-2-oxo-2,3-dihydro-1H-benzo[d]imidazol-1-yl)methyl)cyclo-hexyl)nicotinamide]
Cc1ncc(Cl)cc1C(=O)N[C@H]1CC[C@H](Cn2c(=O)n(-c3ccnc(N(C)C)c3)c3ccccc32)CC1 [Example 649, 5-chloro-N-((1r,4r)-4-((3-(2-(dimethylamino)pyridin-4-yl)-2-oxo-2,3-dihydro-1H-benzo[d]imidazol-1-yl)methyl)cyclohexyl)-2-methyl-nicotinamide]
Cc1ncc(Cl)cc1C(=O)N[C@H]1CC[C@H](Cn2c(=O)n(-c3ccc(OC[C@@H](C)O)nc3)c3ccccc32)CC1 [Example 438, 5-chloro-N-((1R,4r)-4-((3-(6-((R)-2-hydroxypropoxy)pyridin-3-yl)-2-oxo-2,3-dihydro-1H-benzo[d]imidazol-1-yl)methyl)cyclohexyl)-2-methylnicotinamide]
Cc1noc2cc(-n3c(=O)n(C[C@H]4CC[C@H](NC(=O)c5cc(Cl)cnc5C(F)F)CC4)c4cccnc43)ccc12 [Example 583, 5-chloro-2-(difluoromethyl)-N-((1r,4r)-4-((3-(3-methyl-benzo[d]isoxazol-6-yl)-2-oxo-2,3-dihydro-1H-imidazo [4,5-b]pyridin-1-yl)methyl)cyclohexyl)nicotinamide]
N#Cc1ncccc1-n1c(=O)n(C[C@H]2CC[C@H](NC(=O)c3cc(Cl)cnc3C(F)F)CC2)c2ccccc21 [Example 368, 5-chloro-N-((1r,4r)-4-((3-(2-cyanopyridin-3-yl)-2-oxo-2,3-dihydro-1H-benzo[d]imidazol-1-yl)methyl)cyclo-hexyl)-2-(difluoromethyl) nicotinamide]
